Results published in paper PMC9919730, “A Versatile Continuous Fluorometric Enzymatic Assay for Targeting Nicotinate Phosphoribosyltransferase” (Molecules, 2023).
“Also recorded” adds a separate entry of the source. Read-outs that look alike come from different tables or passages of the source. Blank lines part the entries; values can stand above or below the molecule they belong to.

Assays:
human recombinant NAPRT [1] = target: T1, human recombinant NAPRT (Homo sapiens, UniProt Q6XQN6); test: Continuous coupled fluorometric NADH assay of NAPRT activity; conditions: for Inhibitory activity against NAPRT (in words): screening at 0.5 mM
T1 sequence (Q6XQN6 1-538): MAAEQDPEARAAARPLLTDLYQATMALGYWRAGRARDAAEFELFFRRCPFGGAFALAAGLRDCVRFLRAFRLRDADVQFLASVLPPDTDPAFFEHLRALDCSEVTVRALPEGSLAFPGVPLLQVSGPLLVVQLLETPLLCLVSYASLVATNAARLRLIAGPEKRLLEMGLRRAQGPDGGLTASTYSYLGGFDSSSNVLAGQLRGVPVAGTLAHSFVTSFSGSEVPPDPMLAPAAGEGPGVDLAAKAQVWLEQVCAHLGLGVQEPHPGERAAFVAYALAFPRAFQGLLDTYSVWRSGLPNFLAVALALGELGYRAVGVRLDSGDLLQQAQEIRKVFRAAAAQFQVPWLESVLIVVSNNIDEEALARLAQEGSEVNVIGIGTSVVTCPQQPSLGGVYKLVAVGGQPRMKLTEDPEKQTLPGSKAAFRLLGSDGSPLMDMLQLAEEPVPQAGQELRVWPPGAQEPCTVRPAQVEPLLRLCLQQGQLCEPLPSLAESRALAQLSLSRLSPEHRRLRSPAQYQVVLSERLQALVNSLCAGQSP
Description: NADH fluorescence was monitored continuously at 37 °C for 30 min, using a 96-well plate in a Sinergy HT microplate reader (Bio-Tek, Winooski, VT, USA) set at excitation and emission wavelengths of 340 nm and 460 nm, respectively. The slope of the linear fit of fluorescence versus time was used to calculate the NAPRT activity by referring to an NADH standard curve, obtained by plotting the fluorescence of a known amount of NADH versus the nucleotide concentrations. […] These mixtures were optimized to make NadD the rate-limiting enzyme of the ancillary system, i.e., concentrations of the enzyme NadD and the NAMN substrate were chosen to guarantee a linear time course of the fluorescence increase up to 30 min.
The analyzed compounds were dissolved in 100% v/v DMSO. Few compounds were dissolved in water. The compounds were tested at a 0.5 mM concentration. […] The screening was started by using the NADH assay. […] The fluorescence increase was monitored continuously, which allowed us to easily estimate the quality of data and to identify potential artifacts (e.g., arising from compounds precipitation). […] One inhibitor control for each tested compound (compound and no NAPRT), as well as four positive controls (NAPRT and no compound) and four negative controls (no NAPRT and no compound) were included in every reaction plate. The percentage inhibition was calculated relative to the controls as follows: % inhibition=(Si−Ci)/(µp−µn)×100 where Si represents the signal in the presence of the compound; Ci is the signal of the inhibitor control; and µp and µn are the mean values of the signals of the positive and negative controls, respectively.
The IC50 value was determined by plotting the rates versus inhibitor concentration and fitting to the equation: Vi = V0/(1 + [I]/IC50) using GraphPad Prism 7. V0 and Vi represent initial rates in the absence and presence of the inhibitor at concentration [I], respectively.
Ki values were calculated from the straight line deriving from the replotting of the slopes of the reciprocal plot against the concentrations of the inhibitor (secondary plot). In particular, the straight line intersects the x-axis at [I] = −Ki [28].

OVCAR-5 cells [2] = test: Cell viability, sulforhodamine B assay, with or without FK866; format: cell-based; conditions: for Sensitization of cells to FK866 (cell viability in combination): 200 µM compound with FK866 0 to 100 nM; for Combination index (CI): CompuSyn; for viability at 200 µM: Homo sapiens, OVCAR-5, 200 µM compound with 3 nM FK866, 72 h
Description: The OVCAR-5 cell line was obtained from the NCI-60 panel. Cells were seeded in 96-well plates (3 × 10^3 cells/well) and were treated with the selected compounds at a 200 µM final concentration or with 0.2% DMSO the day after, in combination with increasing concentrations of FK866, ranging from 0 to 100 nM. Treated cells were incubated at 37 °C and 5% CO2 for 72 h. At the end of the treatment, trichloroacetic acid (TCA) (10% final concentration) was added to each well. After 20 min at 4 °C, the wells were washed 4 times with tap water to remove TCA, and they were let to dry. Cell viability was evaluated with the sulforhodamine B assay, as previously described.

human recombinant NAPRT [3] = target: T1, human recombinant NAPRT; test: Resazurin/diaphorase-coupled assay of NAPRT activity; format: biochemical; parameters: inferred from purification on a HisTrap IMAC column with imidazole elution; made in house; host or cells: E. coli BL21 (D3); conditions: 0.5 mM compound; 0.1 mM NA, 0.4 mM PRPP; resazurin/diaphorase-coupled assay (optical interference at NADH wavelength)
Description: The NAPRT concentration was 0.004 × 10^−3 U/mL (2 nM). […] The increase in fluorescence due to resorufin formation in the assay was monitored continuously for 30 min, at 590 nm, after excitation at 530 nm, using a 96-well plate in the Sinergy HT microplate reader at 37 °C. […] To determine the NAPRT activity, the first derivative of the recorded fluorescence curve was calculated, and the slope of the corresponding curve was referred to a standard curve obtained by plotting the fluorescence rate recorded in assay mixtures containing known amounts of NAD^+ in the absence of NAPRT, NadD, and NadE versus the dinucleotide concentrations.
The analyzed compounds were dissolved in 100% v/v DMSO. Few compounds were dissolved in water. The compounds were tested at a 0.5 mM concentration. […] The screening was started by using the NADH assay. […] One inhibitor control for each tested compound (compound and no NAPRT), as well as four positive controls (NAPRT and no compound) and four negative controls (no NAPRT and no compound) were included in every reaction plate. The percentage inhibition was calculated relative to the controls as follows: % inhibition=(Si−Ci)/(µp−µn)×100 where Si represents the signal in the presence of the compound; Ci is the signal of the inhibitor control; and µp and µn are the mean values of the signals of the positive and negative controls, respectively.

human recombinant NAPRT [4] = target: T1, human recombinant NAPRT; test: HPLC assay of NAPRT activity; format: biochemical; parameters: inferred from purification on a HisTrap IMAC column with imidazole elution; made in house; host or cells: E. coli BL21 (D3); conditions: 0.5 mM compound; 0.1 mM NA, 0.4 mM PRPP; HPLC assay (interference with both fluorometric assays)
Description: The amount of enzyme was optimized to provide substrate consumption below 20% of the initial concentration after 10 min of incubation at 37 °C. In addition, withdrawals from the reaction mixture at 5 and 10 min were always performed to ensure a linear time frame. The reaction was stopped by acidification with 0.6 M HClO4. After 10 min on ice, samples were clarified by centrifugation for 2 min at 13,000× g. The supernatants were neutralized with 0.8 M K2CO3, frozen at −20 °C for about 20 min, centrifuged at 13,000× g for 5 min, and injected onto a Supelcosil LC-18-S column (5 µm; 250 × 4.6 mm) thermostatted at 8 °C. […] The elution was monitored at 260 nm (Shimadzu SPD-M20A), and the formed NAMN was quantified by referring to an appropriate standard.
The analyzed compounds were dissolved in 100% v/v DMSO. […] The fluorescence increase was monitored continuously, which allowed us to easily estimate the quality of data and to identify potential artifacts (e.g., arising from compounds precipitation). […] The percentage inhibition was calculated relative to the controls as follows: % inhibition=(Si−Ci)/(µp−µn)×100 where Si represents the signal in the presence of the compound; Ci is the signal of the inhibitor control; and µp and µn are the mean values of the signals of the positive and negative controls, respectively.

OVCAR-5 cells [5] = test: Intracellular NAD+ levels measurement (cycling assay); format: cell-based; conditions: for Effect on NAD+ levels combined with FK866: 200 µM compound with 3 nM FK866, 24 h; for NAD levels: 200 µM compound with 3 nM FK866, after 72 h of incubation as printed
Description: The compounds were prepared as described above. OVCAR-5 cells were seeded in a 12-well plate (1 × 10^5/well). The day after, cells were treated with combinations of each selected compound (200 µM, final concentration) and FK866 (3 nM, final concentration) and were incubated at 37 °C and 5% CO2. […] Cell lysates were subsequently collected, transferred to new tubes, and diluted in 100 mM Na2HPO4 at pH 8. To determine the amount of NAD^+, we utilized a sensitive cyclic assay that takes advantage of the enzymatic activity of ADH [23]. Briefly, 0.1 mL of the cycling reagent (2% (v/v) ethanol, 100 μg/mL ADH, 20 μM resazurin, 5 μg/mL diaphorase, 10 μM FMN, 10 mM nicotinamide, and 100 mM sodium phosphate, pH 8.0) were added to each well, containing 0.1 mL of each diluted sample. The increase in resorufin fluorescence (544 nm excitation, 590 nm emission) was measured every min over a 2 h period using a fluorescence plate reader (Fluostar Optima, BMG Labtechnologies GmbH, Offenburg, Germany). A NAD^+ standard curve was always run in parallel in each assay.

[6] = substrate: O=C(O)c1cccnc1; test: purified protein, by the assay type; conditions: other: kinetics in the absence of the inhibitor; 0.4 mM PRPP; pH 7.5; 37.0 °C
[7] = 0.5 mM compound, 0.1 mM NA, 0.4 mM PRPP, NADH assay
[8] = towards NA, NA 10 to 50 µM at 0.4 mM PRPP, NADH assay
[9] = FK866 dose 3 nM with 200 µM compound
[10] = FK866 dose 10 nM with 200 µM compound
[11] = FK866 dose 30 nM with 200 µM compound
[12] = FK866 dose 100 nM with 200 µM compound

Molecule: O=C(O)c1cccnc1C(=O)O [Compound 7, 2,3-pyridine dicarboxylic acid]
inhibition at 500 µM (human recombinant NAPRT [1]; [7]): 9%

Molecule: c1cnc(N2CCNCC2)nc1 [Compound 33, 2-(1-piperazinyl)pyrimidine]
inhibition at 500 µM (human recombinant NAPRT [1]; [7]): 0%
Inhibitory activity against NAPRT (in words) (human recombinant NAPRT [1]): very poor inhibitors

Molecule: NC(=O)c1cnccn1 [Compound 12, pyrazinamide]
inhibition at 500 µM (human recombinant NAPRT [1]; [7]): 0%

Molecule: O=C(O)c1ccccc1 [Compound 19, benzoic acid]
inhibition at 500 µM (human recombinant NAPRT [1]): 8%

Molecule: Nc1ncccc1C(=O)O [Compound 2, 2-aminonicotinic acid]
IC50 (human recombinant NAPRT [1]): 609 ± 69 µM
Ki (human recombinant NAPRT [1]): 348 ± 36 µM
inhibition at 500 µM (human recombinant NAPRT [1]; [7]): 38%
Inhibition Mechanism (human recombinant NAPRT [1]; [8]): mixed
Sensitization of cells to FK866 (cell viability in combination) (OVCAR-5 cells [2]; 72 h): did not significantly sensitize cells to FK866 toxicity

Molecule: O=C(O)c1cccc(N2CCOCC2)c1 [Compound 24, 3-morpholinobenzoic acid]
inhibition at 500 µM (human recombinant NAPRT [3]): 0%

Molecule: O=C(O)c1cnccn1 [Compound 9, pyrazine-2-carboxylic acid]
Sensitization of cells to FK866 (cell viability in combination) (OVCAR-5 cells [2]; 72 h): reduced cell viability when combined with FK866
Sensitization of cells to FK866 (cell viability in combination) (OVCAR-5 cells [2]; 72 h, listed as pyrazine-2-carboxylic acid): sensitize OVCAR-5 cells to the NAMPT inhibitor FK866
Combination index (CI) (OVCAR-5 cells [2]; [9]): 0.198
Combination index (CI) (OVCAR-5 cells [2]; [10]): 0.0673
Combination index (CI) (OVCAR-5 cells [2]; [11]): 0.03276
Combination index (CI) (OVCAR-5 cells [2]; [12]): 0.01211
viability at 200 µM (OVCAR-5 cells [2]): ~80%
Effect on NAD+ levels combined with FK866 (OVCAR-5 cells [5]): most effective
NAD levels (OVCAR-5 cells [5]): ~30%

Molecule: Nc1ccccc1C(=O)O [Compound 20, anthranilic acid]
inhibition at 500 µM (human recombinant NAPRT [1]): 5%

Molecule: Cc1cnc(C(=O)O)c[n+]1[O-] [Compound 14, Acipimox]
inhibition at 500 µM (human recombinant NAPRT [1]; [7]): 0%

Molecule: O=C(O)c1ccc(Cl)nc1 [Compound 4, 6-chloronicotinic acid]
IC50 (human recombinant NAPRT [1]): 1260 ± 115 µM
Inhibition Mechanism (human recombinant NAPRT [1]): 845 ± 69 non-competitive
Ki (human recombinant NAPRT [1]): 845 ± 69 µM
inhibition at 500 µM (human recombinant NAPRT [1]): 44%

Molecule: O=C(O)c1cccnc1O [Compound 1, 2-hydroxynicotinic acid]
Sensitization of cells to FK866 (cell viability in combination) (OVCAR-5 cells [2]; 72 h): reduced cell viability when combined with FK866
Sensitization of cells to FK866 (cell viability in combination) (OVCAR-5 cells [2]; 72 h, listed as 2-hydroxynicotinic acid): sensitize OVCAR-5 cells to the NAMPT inhibitor FK866; also recorded: effective in sensitizing tumor cells to NAMPT inhibitors
Combination index (CI) (OVCAR-5 cells [2]; [9]): 0.5117
Combination index (CI) (OVCAR-5 cells [2]; [10]): 0.3255
Combination index (CI) (OVCAR-5 cells [2]; [11]): 0.339
Combination index (CI) (OVCAR-5 cells [2]; [12]): 0.3592
viability at 200 µM (OVCAR-5 cells [2]): ~75%
Effect on NAD+ levels combined with FK866 (OVCAR-5 cells [5]): most effective
NAD levels (OVCAR-5 cells [5]): about 15%

Molecule: O=C(O)c1cccnc1F [Compound 3, 2-fluoronicotinic acid]
IC50 (human recombinant NAPRT [1]): 351 ± 38 µM
Ki (human recombinant NAPRT [1]): 149 ± 14 µM
inhibition at 500 µM (human recombinant NAPRT [1]; [7]): 57%
Inhibition Mechanism (human recombinant NAPRT [1]; [8]): non-competitive
Sensitization of cells to FK866 (cell viability in combination) (OVCAR-5 cells [2]; 72 h): did not significantly sensitize cells to FK866 toxicity

Molecule: O=C(O)Cc1cnccn1 [Compound 13, 2-pyrazine acetic acid]
inhibition at 500 µM (human recombinant NAPRT [1]; [7]): 0%

Molecule: Nc1nccnc1C(=O)O [Compound 10, 3-aminopyrazine-2-carboxylic acid]
inhibition at 500 µM (human recombinant NAPRT [3]): 6%

Molecule: O=C(O)c1ccc(O)nc1 [Compound 8, 6-hydroxynicotinic acid]
inhibition at 500 µM (human recombinant NAPRT [1]): 0%

B1: human recombinant NAPRT (Homo sapiens) (protein)
chain: MAAEQDPEARAAARPLLTDLYQATMALGYWRAGRARDAAEFELFFRRCPFGGAFALAAGLRDCVRFLRAFRLRDADVQFLASVLPPDTDPAFFEHLRALDCSEVTVRALPEGSLAFPGVPLLQVSGPLLVVQLLETPLLCLVSYASLVATNAARLRLIAGPEKRLLEMGLRRAQGPDGGLTASTYSYLGGFDSSSNVLAGQLRGVPVAGTLAHSFVTSFSGSEVPPDPMLAPAAGEGPGVDLAAKAQVWLEQVCAHLGLGVQEPHPGERAAFVAYALAFPRAFQGLLDTYSVWRSGLPNFLAVALALGELGYRAVGVRLDSGDLLQQAQEIRKVFRAAAAQFQVPWLESVLIVVSNNIDEEALARLAQEGSEVNVIGIGTSVVTCPQQPSLGGVYKLVAVGGQPRMKLTEDPEKQTLPGSKAAFRLLGSDGSPLMDMLQLAEEPVPQAGQELRVWPPGAQEPCTVRPAQVEPLLRLCLQQGQLCEPLPSLAESRALAQLSLSRLSPEHRRLRSPAQYQVVLSERLQALVNSLCAGQSP
Km [6]: 15 ± 6 µM

Now from value to molecule, other results behind:

inhibition at 500 µM (human recombinant NAPRT [1]; [7]): 0%
Inhibitory activity against NAPRT (in words) (human recombinant NAPRT [1]): inactive
Molecule: CC(=O)Nc1ccccc1 [Compound 37, acetanilide]

inhibition at 500 µM (human recombinant NAPRT [1]; [7]): 0%
Inhibitory activity against NAPRT (in words) (human recombinant NAPRT [1]): inactive
Molecule: NC1CCC(C(=O)O)CC1 (stereo not drawn) [Compound 35, 4-aminocyclohexane carboxylic acid]

IC50 (human recombinant NAPRT [1]): 351 ± 19 µM
Ki (human recombinant NAPRT [1]): 169 ± 15 µM
inhibition at 500 µM (human recombinant NAPRT [1]; [7]): 58%
Molecule: O=C(O)c1ccccc1O [Compound 17, salicylic acid]
Inhibition Mechanism (human recombinant NAPRT [1]; [8]): noncompetitive inhibition; also recorded: non- competitive
Effect on cell viability in the absence of FK866 (OVCAR-5 cells [2]; 200 µM compound, 72 h, no FK866): toxicity

inhibition at 500 µM (human recombinant NAPRT [4]): 5%
Molecule: Nc1c(O)cccc1C(=O)O [Compound 21, 3-hydroxy anthranilic acid]

inhibition at 500 µM (human recombinant NAPRT [1]; [7]): 11%
Molecule: CC(=O)Oc1ccccc1C(=O)O [Compound 18, acetyl salicylic acid]

inhibition at 500 µM (human recombinant NAPRT [1]; [7]): 0%
Molecule: O=C(O)c1ccncc1 [Compound 27, isonicotinic acid]

inhibition at 500 µM (human recombinant NAPRT [1]; [7]): ≤ 20%
Molecule: O=C(O)c1ncccn1 [Compound 29, 2-pyrimidine carboxylic acid]

inhibition at 500 µM (human recombinant NAPRT [1]; [7]): 0%
Inhibitory activity against NAPRT (in words) (human recombinant NAPRT [1]): very poor inhibitors
Molecule: Oc1ncccn1 [Compound 32, 2-hydroxypyrimidine]

inhibition at 500 µM (human recombinant NAPRT [4]): 5%
Molecule: O=C(O)c1ccccc1N=Nc1ccc(O)cc1 [Compound 22, 2-(4-hydroxyphenylazo) benzoic acid]

inhibition at 500 µM (human recombinant NAPRT [1]; [7]): 6%
Molecule: O=C(O)c1ccccn1 [Compound 25, 2-picolinic acid]

IC50 (human recombinant NAPRT [1]): 1370 ± 74 µM
Ki (human recombinant NAPRT [1]): 513 ± 13 µM
inhibition at 500 µM (human recombinant NAPRT [1]; [7]): 30%
Inhibition Mechanism (human recombinant NAPRT [1]; [8]): mixed inhibitor
Molecule: O=C(O)c1cccnn1 [Compound 15, 3-pyridazine carboxylic acid]

inhibition at 500 µM (human recombinant NAPRT [1]; [7]): ≤ 20%
Molecule: O=C(O)c1cncnc1 [Compound 28, 5-pyrimidine carboxylic acid]
